Consider five compounds from publication PMC8850444, “The lipid components of high-density lipoproteins (HDL) are essential for the binding and transportation of antimicrobial peptides in human serum” (Scientific Reports, 2022).

Bounds are passed on as bounds.

For data set [1], the system named is Escherichia coli K-12 (MG1655). The class given is cell-based. To be noted: for repression of antimicrobial activity by human serum: E. coli 10^6 cfu/ml, 5% human serum (v/v) compared with PBS, mean ± SD n = 3. Here is the method: The Gram-negative bacteria Escherichia coli K-12 (MG1655) was cultured and plated in/on Luria–Bertani broth/agar plate (Merck Millipore, Darmstadt, Germany). The bacteria were grown overnight, washed, and diluted 1:2000 in phosphate buffered saline (PBS), pH 7.4. Bacteria (ca. 1 × 10^6 colony-forming units, cfu/ml) was mixed with antimicrobial peptides (AMP) in 100 µl PBS and incubated at 37 °C. Serial dilutions of each AMP-treated bacteria in the presence of human sera, proteins or lipids were prepared and plated for determination of remaining viable cells (expressed as cfu). At least three independent experiments were performed for each assay to determine the mean value with standard deviation (SD)[31].
For all in vitro antimicrobial assays, the average value with standard deviation (SD) was determined from at least three independent experiments. Mann–Whitney test and Kruskal–Wallis tests were performed to determine the significance. For lipid quantification, the average value with standard deviation (SD) was determined from at least three independent experiments and One-way ANOVA test was performed to determine the significance of the difference in the measured values. P < 0.05 was considered to be statistically significant.

The next data set relates to human albumin. As to conditions: cited from earlier work.
For a further data set, the system named is human serum. Kind of data set: Band shift of AMPs in human serum on horizontal native PAGE. The class given is binding. To be noted: AMP 4 µg in 10 µl diluted human serum, 5–40% (v/v), 8% horizontal native PAGE, Coomassie blue. Here is the method: (§1) Various AMPs (4 µg each) were incubated with human serum, isolated components or lipid at the indicated concentrations at room temperature in 10 µl PC buffer (20 mM HEPES, pH7.4, 50 mM NaCl) for 30 min, subjected to horizontal native 8% polyacrylamide gel electrophoreses (PAGE), pH8.0/pH8.8, and stained with Coomassie Blue.

In the next data set the test system is HDL. Put plainly: Band shift of AMPs by HDL on horizontal native PAGE. The format is binding, human. As to conditions: AMP 4 µg, agents 10 µg or lipids 4 µg in BSA, 8% horizontal native PAGE. As to the method:
as §1

As for `CC[C@H](C)[C@H](NC(=O)[C@H](CCCCN)NC(=O)[C@H](CCC(=O)O)NC(=O)[C@H](CCCCN)NC(=O)[C@H](CO)NC(=O)[C@H](CCCCN)NC(=O)[C@H](CCCNC(=N)N)NC(=O)[C@H](Cc1ccccc1)NC(=O)[C@H](Cc1ccccc1)NC(=O)[C@H](CC(=O)O)NC(=O)CNC(=O)[C@H](CC(C)C)NC(=O)[C@@H](N)CC(C)C)C(=O)NCC(=O)N[C@@H](CCCCN)C(=O)N[C@@H](CCC(=O)O)C(=O)N[C@@H](Cc1ccccc1)C(=O)N[C@@H](CCCCN)C(=O)N[C@@H](CCCNC(=N)N)C(=O)N[C@H](C(=O)N[C@H](C(=O)N[C@@H](CCC(N)=O)C(=O)N[C@@H](CCCNC(=N)N)C(=O)N[C@H](C(=O)N[C@@H](CCCCN)C(=O)N[C@@H](CC(=O)O)C(=O)N[C@@H](Cc1ccccc1)C(=O)N[C@@H](CC(C)C)C(=O)N[C@@H](CCCNC(=N)N)C(=O)N[C@@H](CC(N)=O)C(=O)N[C@@H](CC(C)C)C(=O)N[C@H](C(=O)N1CCC[C@H]1C(=O)N[C@@H](CCCNC(=N)N)C(=O)N[C@H](C(=O)N[C@@H](CCC(=O)O)C(=O)N[C@@H](CO)C(=O)O)[C@@H](C)O)C(C)C)[C@@H](C)CC)C(C)C)[C@@H](C)CC` [LL37], the “LC99 in 5% human serum” value in data set [1] (E. coli, cfu counting, 5% human serum, LC99 = lowest AMP concentration that kills 99% of the original inoculum, 37 °C) is more than 512 mg/L. The “LC99 in PBS” value in data set [1] (E. coli, cfu counting, PBS pH 7.4, LC99 = lowest AMP concentration that kills 99% of the original inoculum, 37 °C) is 16 mg/L.

On to `CC(=O)CC(c1ccccc1)c1c(O)c2ccccc2oc1=O` (centres unmarked) [warfarin], for which the “fraction bound to human albumin” value in the data set on human albumin (human albumin drug binding site I (warfarin) and site II (ibuprofen)) is on record as “more than 90%”.

On to “Pleurocidin: antimicrobial peptide from Pleuronectes amertcanus (GWGSFFKKAAHVGKHVGKAALTHYL)”, for which, in data set [1], the “repression of antimicrobial activity by human serum” value is “not at all observed”. For the same compound, the “fold increase of LC99 in 5% human serum over PBS” value in data set [1] (E. coli, LC99 in 5% human serum versus PBS) was “one”. Further, the “bactericidal activity in presence of purified S50, E5, Apo-AI, PC, SM, CO and HDL” value in data set [1] (E. coli, NRC12 16 mg/L, Pleurocidin 8 mg/L) is reported as “resistant”. For the same compound, the “band shift of AMP in human serum” value in the data set on human serum is given as “not shifted”. Moreover, the “band shift by purified S50, E5, Apo-AI, PC, SM, CO and HDL” value in the data set on HDL is “resistant”.

Consider Polymyxin B, for which the “repression of antimicrobial activity by human serum” value in data set [1] is on record as “not at all observed”. In the data set with human serum, the “band shift of AMP in human serum” value is recorded as “not shifted”.

With daptomycin, the “fraction bound and inhibited by albumin” value with human albumin (human serum) is 90–94%.
